Tests used:
[1] = Authentic human urine sample after intake of 4F-MDMB-BINACA, LC-HRMS/MS; type: in vivo; details: one patient, unknown dose and time point of intake
Protocol: Human blood and urine collected after a suspected intake of drugs of abuse were submitted to the authors' laboratory for regular clinical toxicological analysis. The blood sample was centrifuged, and plasma was separated. The authors' standard liquid–liquid extraction for human plasma screening was used (Maurer et al., [2016]). Briefly, 1,000 μl of plasma was mixed with 100 μl of internal standard (0.01 μg/μl trimipramine-d3 in methanol) and extracted with 5,000 μl of a mixture of diethyl ether:ethyl acetate (1:1, v/v) after addition of 2,000 μl of saturated sodium sulfate solution. Phase separation was mediated by centrifugation. The organic layer was transferred into a flask and evaporated to dryness at 60°C under reduced pressure. The aqueous residue was then alkalized with 500 μl of 1 M sodium hydroxide and extracted a second time with 5,000 μl of the diethyl ether:ethyl acetate mixture. The organic extract was transferred to the same flask and evaporated as described before. The combined residues were dissolved in 100 μl of methanol and transferred into an autosampler vial, and 5 μl was injected onto the LC-HRMS/MS system. An aliquot of the human urine sample (100 μl) was prepared according to a previous study by precipitation with 500 μl of acetonitrile (Wissenbach et al., [2011]). The mixture was shaken and centrifuged (18,407 × g, 2 min). […]

[2] = pHLM without co-substrates of phase II reactions; ref Haschimi et al., [2019]; cited from earlier work
[3] = biological target: T1, hCES1b (Homo sapiens, UniProt P23141); test: Esterases activity screening, hCES1b; type: in vitro ADME; design: key: +, detected; –: −, not detected; details: 100 μM 4F-MDMB-BINACA, 0.2 mg protein/ml, duplicate
T1 construct: purchased Corning
T1 sequence (P23141 18-567): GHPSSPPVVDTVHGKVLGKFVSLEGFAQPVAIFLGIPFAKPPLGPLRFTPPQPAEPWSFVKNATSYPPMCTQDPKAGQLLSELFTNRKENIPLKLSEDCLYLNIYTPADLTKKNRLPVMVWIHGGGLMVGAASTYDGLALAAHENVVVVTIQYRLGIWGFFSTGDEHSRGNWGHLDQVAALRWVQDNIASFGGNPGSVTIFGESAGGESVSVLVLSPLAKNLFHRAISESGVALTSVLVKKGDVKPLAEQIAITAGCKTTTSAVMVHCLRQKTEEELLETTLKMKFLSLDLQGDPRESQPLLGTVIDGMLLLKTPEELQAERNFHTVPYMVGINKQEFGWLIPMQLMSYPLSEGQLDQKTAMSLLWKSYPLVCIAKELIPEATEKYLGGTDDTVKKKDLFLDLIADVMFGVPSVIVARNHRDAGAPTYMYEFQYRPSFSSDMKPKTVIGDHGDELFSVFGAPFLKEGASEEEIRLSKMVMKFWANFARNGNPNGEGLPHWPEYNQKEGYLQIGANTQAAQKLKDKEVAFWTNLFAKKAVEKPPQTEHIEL
Protocol: Experiments were performed in accordance with a previous study (Meyer et al., [2015]) with minor modifications. The final volume per reaction tube was 100 μl with a final 4F-MDMB-BINACA concentration of 100 μM and enzyme concentration of 0.2 mg protein/ml for hCES1b, hCES1c, and hCES2. Incubations with pHLM and pHLS9 (0.2 mg protein/ml, each) were performed in a similar manner. Additionally, incubations with human plasma (50 μl pooled human plasma, 40 μl phosphate buffer, and 10 μl substrate) were performed. The reactions were started by adding the enzyme-containing preparation and terminated with an equal volume of ice-cold acetonitrile containing diazepam-d5 (100 μM) as an internal standard. Only plasma incubations were terminated by addition of a three-fold volume of ice-cold acetonitrile. The reaction mixtures were centrifuged at 18,407 × g for 15 min, and then supernatants were transferred to autosampler vials, and 5 μl was injected onto the LC-HRMS/MS system. Negative control incubations without enzyme were prepared to identify non-metabolically formed compounds. All incubations were done in duplicate.

Row | SMILES | Detectability of the parent compound in urine [1] | Number of phase I metabolites identified in pHLM incubations [2] | Detection of metabolite in incubation with hCES1b [3]
1 | COC(=O)C(NC(=O)c1nn(CCCCF)c2ccccc12)C(C)(C)C (stereo not drawn) [4F-MDMB-BINACA, methyl 2-[1-(4-fluorobutyl)-1H-indazole-3-carbonyl]amino-3,3-dimethylbutanoate] | barely detectable | 11 | –
2 | CC(C)(C)C(NC(=O)c1nn(CCCCF)c2ccccc12)C(=O)O (stereo not drawn) [MB8] | – | – | +
